Measurements: ChEMBL document CHEMBL5506004, “Optimizing drug-like properties of selective butyrylcholinesterase inhibitors for cognitive improvement: Enhancing aqueous solubility by disrupting molecular plane” (Eur J Med Chem, 2024)
In brackets after ≈: the same amount, converted by molar mass. Activity calls are given as the source filed them. No cut-off for these calls is given here.

Experiments:
Cholinesterase [1] = target: Cholinesterase (Equus caballus, UniProt P81908); assay: Inhibition of horse serum BChE using BTC iodide as substrate preincubated for 5 mins followed by substrate addition measured after 2 mins by Ellman's method
Cholinesterase (Equus caballus, UniProt P81908), sequence (P81908 whole entry): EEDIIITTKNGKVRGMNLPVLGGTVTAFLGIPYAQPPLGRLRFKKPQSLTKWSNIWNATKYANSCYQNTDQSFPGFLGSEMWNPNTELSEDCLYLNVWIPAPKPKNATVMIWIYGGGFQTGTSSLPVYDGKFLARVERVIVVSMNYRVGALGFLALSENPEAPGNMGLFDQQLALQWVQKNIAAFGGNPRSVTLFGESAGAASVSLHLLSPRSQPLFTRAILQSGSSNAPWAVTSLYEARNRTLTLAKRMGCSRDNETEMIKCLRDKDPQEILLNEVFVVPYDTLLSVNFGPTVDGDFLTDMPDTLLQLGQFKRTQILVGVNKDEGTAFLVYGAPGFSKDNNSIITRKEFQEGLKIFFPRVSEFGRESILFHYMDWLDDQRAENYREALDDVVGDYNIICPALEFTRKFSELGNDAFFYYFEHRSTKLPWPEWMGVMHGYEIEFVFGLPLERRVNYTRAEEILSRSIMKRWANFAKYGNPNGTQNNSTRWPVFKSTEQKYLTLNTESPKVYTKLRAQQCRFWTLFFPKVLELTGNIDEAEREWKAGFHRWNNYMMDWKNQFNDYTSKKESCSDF

[2] = Solubility of compound in FaSSIF incubated for 24 hrs by HPLC analysis; type: ADME
[3] = Tmax in Sprague-Dawley rat at 10 mg/kg, po measured for 1 to 1440 mins by LC-MS/MS analysis; type: ADME, organism-based; details: in vivo, time 1-1440 min
[4] = Metabolic stability in human liver microsomes assessed as compound remaining at 2 uM measured after 12.8 mins by LC-MS/MS analysis; type: ADME, Microsome; details: read-out: Activity
Cholinesterase [5] = target: Cholinesterase (Homo sapiens, UniProt P06276); assay: Inhibition of human BChE using BTC iodide as substrate preincubated for 5 mins followed by substrate addition measured after 2 mins by Ellman's method
Cholinesterase (Homo sapiens, UniProt P06276), sequence (P06276 whole entry): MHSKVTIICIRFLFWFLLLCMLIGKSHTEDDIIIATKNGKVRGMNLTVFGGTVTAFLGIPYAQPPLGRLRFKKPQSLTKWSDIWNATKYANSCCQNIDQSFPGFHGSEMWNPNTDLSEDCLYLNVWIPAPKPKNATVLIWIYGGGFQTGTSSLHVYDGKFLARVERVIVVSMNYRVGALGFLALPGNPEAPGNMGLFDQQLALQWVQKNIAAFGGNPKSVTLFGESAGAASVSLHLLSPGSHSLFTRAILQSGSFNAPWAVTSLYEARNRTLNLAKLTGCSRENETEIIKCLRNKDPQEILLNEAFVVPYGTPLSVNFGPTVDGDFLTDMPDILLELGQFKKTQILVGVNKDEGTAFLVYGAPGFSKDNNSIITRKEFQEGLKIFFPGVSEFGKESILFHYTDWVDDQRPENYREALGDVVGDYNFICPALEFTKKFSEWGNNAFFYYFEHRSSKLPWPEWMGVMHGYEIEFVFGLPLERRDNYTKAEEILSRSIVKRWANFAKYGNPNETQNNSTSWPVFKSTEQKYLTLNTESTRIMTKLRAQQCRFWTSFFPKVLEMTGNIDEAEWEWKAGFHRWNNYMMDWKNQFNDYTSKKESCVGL

Mus musculus [6] = assay: Cognitive enhancing effect in Amyloid beta (1 to 42)-treated ICR mouse assessed as reduction in trajectory uncertainty at 10 mg/kg, po administered daily measured after 7 to 12 days by Morris water maze test; type: functional, organism-based; details: time 7-12 day
Mus musculus [7] = assay: Cognitive enhancing effect in Amyloid beta (1 to 42)-treated ICR mouse assessed as shorter arrival time at 10 mg/kg, po administered daily measured after 7 to 12 days by Morris water maze test; type: functional, organism-based; details: time 7-12 day
SH-SY5Y [8] = assay: Neuroprotective activity against amyloid beta (1 to 42)-induced neuronal death in human SH-SY5Y cells assessed as cell viability pretreated for 1 hr followed by amyloid beta (1 to 42) addition measured after 24 hrs by MTT assay; type: functional, cell-based; details: dose 1-10 µM, time 25.0 hrs
[9] = Permeability of compound at 50 ug/ml incubated for 18 hrs by PAMPA; type: ADME; details: dose 50 µg/ml, read-out: permeability
BV-2 = assay: Cytotoxicity against mouse BV-2 cells assessed as survival rate at 100 uM incubated for 24 hrs by MTT assay relative to control; type: functional; details: read-out: Survival
[10] = Acute toxicity in ICR mouse assessed as animal growth at 1 g/kg, IG; details: in vivo, po, 1000 mg/kg
[11] = Cytotoxicity against human L02 cells assessed as survival rate at 100 uM incubated for 24 hrs by MTT assay relative to control; type: toxicity, cell-based; details: read-out: Survival
PC-12 [12] = assay: Neuroprotective activity in rat PC12 cells assessed as cell viability pretreated for 2 hrs followed by H2O2 addition measured after 24 hrs by MTT assay; type: functional, cell-based; details: time 26.0 hrs
PC-12 [13] = assay: Cytotoxicity against rat PC12 cells assessed as survival rate at 100 uM incubated for 24 hrs by MTT assay relative to control; type: functional; details: read-out: Survival
[14] = Metabolic stability in human liver microsomes assessed as compound metabolism at 2 uM measured for 60 mins by LC-MS/MS analysis; type: ADME, Microsome; details: read-out: Drug metabolism
HT-22 = assay: Cytotoxicity against mouse HT-22 cells assessed as survival rate at 100 uM incubated for 24 hrs by MTT assay relative to control; type: functional; details: read-out: Survival
[15] = Acute toxicity in ICR mouse assessed as animal death at 1 g/kg, IG; details: in vivo, po, 1000 mg/kg
SH-SY5Y [16] = assay: Cytotoxicity against human SH-SY5Y cells assessed as survival rate at 100 uM incubated for 24 hrs by MTT assay relative to control; type: functional; details: read-out: Survival

| Compound | IC50 (Cholinesterase [1]) [nM] | solubility at 24 h [2] [µM] | other results |
| --- | --- | --- | --- |
| Nc1nonc1-c1nc2ccccc2n1CC(=O)Nc1cncc(F)c1 | 99.4 | 512 (≈ 181 µg/mL) | – |
| Nc1nonc1-c1nc2ccccc2n1CC(=O)Nc1cnc2ccccc2c1 | – | 231 (≈ 89 µg/mL) | Tmax [3]: 9.5 min |
| C[C@]12CC[C@H]3[C@@H](CCC4=CC(=O)CC[C@@]43C)[C@@H]1CC[C@@H]2O [TESTOSTERONE] | – | – | remaining at 0.2133 h, 2 µM [4]: 50% |
| Nc1nonc1-c1nc2ccccc2n1CC(=O)Nc1ccccn1 | 1320 | 322 (≈ 108 µg/mL) | – |
| Nc1nonc1-c1nc2ccccc2n1CC(=O)Nc1cccc(N2CCCC2)c1 | 5.57 | 104 (≈ 42 µg/mL) | IC50 (Cholinesterase [5]): 2.26 nM |
| Nc1c2c(nc3ccccc13)CCCC2 [TACRINE] | – | 1440 (≈ 285 µg/mL) | – |
| COC(=O)c1ccnc(NC(=O)Cn2c(-c3nonc3N)nc3ccccc32)c1 | 33.1 | 175 (≈ 68.8 µg/mL) | – |
| COC(=O)c1cncc(NC(=O)Cn2c(-c3nonc3N)nc3ccccc32)c1 | 43 | 211 (≈ 83 µg/mL) | – |
| Nc1nonc1-c1nc2ccccc2n1CC(=O)Nc1cccc(C(=O)O)c1 | 1970 | ≥ 5290 | – |
| Nc1nonc1-c1nc2ccccc2n1CC(=O)Nc1ccc(CC(=O)N2CCOCC2)cc1 | 123 | 951 (≈ 439 µg/mL) | – |
| Nc1nonc1-c1nc2ccccc2n1CC(=O)Nc1cncc(Cl)c1 | 31.6 | 462 (≈ 171 µg/mL) | – |
| CN1CCN(c2ccccc2NC(=O)Cn2c(-c3nonc3N)nc3ccccc32)CC1 | 524 | 483 (≈ 209 µg/mL) | – |
| COc1cc2c(cc1OC)C(=O)C(CC1CCN(Cc3ccccc3)CC1)C2 (stereo not drawn) | – | – | Activity (Mus musculus [6]): Active; Activity (Mus musculus [7]): Active |
| Nc1nonc1-c1nc2ccccc2n1CC(=O)Nc1ccc(N2CCOCC2)cc1 | 481 | 861 (≈ 361 µg/mL) | – |
| CN1CCN(C(=O)Cc2cccc(NC(=O)Cn3c(-c4nonc4N)nc4ccccc43)c2)CC1 | 1940 | 1330 (≈ 631 µg/mL) | – |
| Nc1nonc1-c1nc2ccccc2n1CC(=O)Nc1ccc(CN2CCOCC2)cc1 | 14 | 3050 (≈ 1320 µg/mL) | Activity (SH-SY5Y [8]): Dose-Dependent Effect; Papp at 18 h, 50 ug/ml [9]: 5.38 ×10⁻⁶ cm/s; viability at 100 µM (BV-2): 78.2%; Activity [10]: Non-Toxic; viability at 24 h, 100 µM [11]: 114%; IC50 (Cholinesterase [5]): 106 nM; Activity (PC-12 [12]): Dose-Dependent Effect; viability at 100 µM (PC-12 [13]): 101%; metabolised at 1 h, 2 µM [14]: < 15%; viability at 100 µM (HT-22): 66.5%; Activity [15]: Non-Toxic; viability at 100 µM (SH-SY5Y [16]): 131% |
